Test results: ChEMBL document CHEMBL1143055, “2,3,5-Substituted tetrahydrofurans as cancer chemopreventives. Part 1: synthesis and anti-cancer activities of 5-hydroxymethyl-2,3-diaryl-tetrahydro-furan-3-ols” (2007)

Key:
SK-MEL-5 = experiment: Antitumor activity against human SK-MEL-5 cells; type: functional
SR = experiment: Antitumor activity against human SR cells; type: functional
UACC-257 = experiment: Antitumor activity against human UACC257 cells; type: functional
[1] = Antitumor activity against human HS 578T cells; type: functional
SNB-75 = experiment: Antitumor activity against human SNB75 cells; type: functional
A498 = experiment: Antitumor activity against human A498 cells; type: functional
OVCAR-5 = experiment: Antitumor activity against human OVCAR5 cells; type: functional
RPMI-8226 = experiment: Antitumor activity against human RPMI8226 cells; type: functional
ACHN = experiment: Antitumor activity against human ACHN cells; type: functional
A549 = experiment: Antitumor activity against human A549 cells; type: functional
SW-620 = experiment: Antitumor activity against human SW620 cells; type: functional
KM12 = experiment: Antitumor activity against human KM12 cells; type: functional
BT-549 = experiment: Antitumor activity against human BT549 cells; type: functional
SF-268 = experiment: Antitumor activity against human SF268 cells; type: functional
LOX IMVI = experiment: Antitumor activity against human LOX IMVI cells; type: functional
DU-145 = experiment: Antitumor activity against human DU145 cells; type: functional
NCI-H460 = experiment: Antitumor activity against human NCI-H460 cells; type: functional
U-251 = experiment: Antitumor activity against human U251 cells; type: functional
HOP-92 = experiment: Antitumor activity against human HOP92 cells; type: functional
HCT-116 = experiment: Antitumor activity against human HCT116 cells; type: functional
786-0 = experiment: Antitumor activity against human 786-0 cells; type: functional
OVCAR-4 = experiment: Antitumor activity against human OVCAR4 cells; type: functional
TK-10 = experiment: Antitumor activity against human TK10 cells; type: functional
NCI-H23 = experiment: Antitumor activity against human NCI-H23 cells; type: functional
NCI/ADR-RES = experiment: Antitumor activity against human NCI/ADR-RES cells; type: functional
[2] = Antitumor activity against human NCI-H322 cells; type: functional
IGROV-1 = experiment: Antitumor activity against human IGROV1 cells; type: functional
SK-OV-3 = experiment: Antitumor activity against human SK-OV-3 cells; type: functional
OVCAR-8 = experiment: Antitumor activity against human OVCAR8 cells; type: functional
COLO 205 = experiment: Antitumor activity against human COLO205 cells; type: functional
HT-29 = experiment: Antitumor activity against human HT29 cells; type: functional
NCI-H226 = experiment: Antitumor activity against human NCI-H226 cells; type: functional
[3] = Antitumor activity against human HL60 (TB) cells; type: functional, HL-60(TB); details: HL-60
SNB-19 = experiment: Antitumor activity against human SNB19 cells; type: functional
MDA-MB-435 = experiment: Antitumor activity against human MDA-MB-435 cells; type: functional
SN12C = experiment: Antitumor activity against human SN12C cells; type: functional
K562 = experiment: Antitumor activity against human K562 cells; type: functional
CAKI-1 = experiment: Antitumor activity against human CAKI-1 cells; type: functional
MOLT-4 = experiment: Antitumor activity against human MOLT4 cells; type: functional
OVCAR-3 = experiment: Antitumor activity against human OVCAR-3 cells; type: functional
Malme-3M = experiment: Antitumor activity against human MALME-3M cells; type: functional
UO-31 = experiment: Antitumor activity against human UO31 cells; type: functional
MCF7 = experiment: Antitumor activity against human MCF7 cells; type: functional
SF-539 = experiment: Antitumor activity against human SF539 cells; type: functional
HCC 2998 = experiment: Antitumor activity against human HCC2998 cells; type: functional
[4] = Antitumor activity against human […] cells; type: functional
SF-295 = experiment: Antitumor activity against human SF295 cells; type: functional
EKVX = experiment: Antitumor activity against human EKVX cells; type: functional
HOP-62 = experiment: Antitumor activity against human HOP62 cells; type: functional
HCT-15 = experiment: Antitumor activity against human HCT15 cells; type: functional
PC-3 = experiment: Antitumor activity against human PC3 cells; type: functional
NCI-H522 = experiment: Antitumor activity against human NCI-H522 cells; type: functional
UACC-62 = experiment: Antitumor activity against human UACC62 cells; type: functional
SK-MEL-28 = experiment: Antitumor activity against human SK-MEL-28 cells; type: functional
CCRF-CEM = experiment: Antitumor activity against human CCRF-CEM cells; type: functional
RXF 393 = experiment: Antitumor activity against human RXF393 cells; type: functional

Measured: GI50

CS(=O)(=O)c1ccc([C@H]2O[C@@H](CO)C[C@]2(O)c2ccc(S(C)(=O)=O)cc2)cc1 (relative stereo)
> 100 µM: all assays above
